We go through two molecules from US5200409A, “Composition and use of substituted 1,3-dithiolo-and 1,4-dithiinoquinoxalines as an antimicrobial” (The Dow Chemical Company, priority 1992, dated 1993).

Converted amounts (≈) assume the structure as drawn. Where two headings read alike, the source gives them in different places.

The test system of one assay is Fusarium oxysporum (Fo). As to the kind of experiment: Minimum inhibitory concentration (MIC) in malt yeast agar. The format is cell-based, Fusarium oxysporum ATCC 48112. Particulars: malt yeast agar; 30° C.; 72 hours for fungi; read-out: Minimum Inhibitory Concentration, Fo. Here is the method:
(§1) The minimum inhibitory concentration (MIC) for the compounds listed in Table I is determined for 9 bacteria, using nutrient agar: and 7 yeast and fungi, using malt yeast agar. A one percent solution of the test compound is prepared in a mixture of acetone and water. Nutrient agar is prepared at pH 6.8, representing a neutral medium, and at pH 8.2, representing an alkaline medium. The nutrient agars are prepared by adding 23 g of nutrient agar to one-liter of deionized water. In addition, the alkaline medium is prepared by adjusting a 0.04M solution of N-[tris-(hydroxymethyl)methyl]-glycine buffered deionized water with concentrated sodium hydroxide to a pH of […]. Malt yeast agar is prepared by adding 3 g yeast extract and 45 g malt agar per liter of deionized water. The specific agar is dispensed in 30 ml aliquots into 25×200 mm test tubes, capped and autoclaved for 15 minutes at 115° C. The test tubes containing the agar are cooled in a water bath until the temperature of the agar is 48° C. Then, an appropriate amount of the one percent solution of the test compound is added (except in the controls where no compound is added) to the respective test tubes so that the final concentrations are 500, 250, 100, 50, 25, 10, 5, 2.5, 1.0 and zero parts per million of the test compound in the agar, thus having a known concentration of test compound dispersed therein. The contents of the test tubes are then transferred to respective petri plates. After drying for 24 hours, the petri plates containing nutrient agar are inoculated with bacteria and those containing malt yeast agar are inoculated with yeast and fungi.
(§2) The inoculation with the yeast and fungi is accomplished as follows. Cultures of yeast and fungi are incubated for seven days on malt yeast agar at 30° C. These cultures are used to prepare suspensions by the following procedure. A suspension of each organism is prepared by adding 10 ml of sterile saline and 10 microliters of octylphenoxy polyethoxy ethanol to the agar slant of yeast or fungi. The sterile saline/octylphenoxy polyethoxy ethanol solution is then agitated with a sterile swab to suspend the microorganism grown on the slant. Each resulting suspension is diluted into sterile saline (1 part suspension: 9 parts sterile saline). Aliquots of these dilutions are placed in individual wells of Steer's Replicator and petri plates inoculated as previously described. The petri plates are incubated at 30° C. and read after 48 hours for yeast and 72 hours for fungi.
(§3) Table II lists the bacteria, yeast and fungi used in the MIC test described above along with their respective American Type Culture Collection (ATCC) identification numbers.

For assay [1], the system named is Pseudomonas aeruginosa (Pa). As to the kind of experiment: Minimum inhibitory concentration (MIC) in nutrient agar. The format is cell-based, Pseudomonas aeruginosa ATCC 10145. Particulars: 48 hours. Here is the method:
as §1
(§4) The inoculation with bacteria is accomplished by using the following procedure. Twenty-four hour-cultures of each of the bacteria are prepared by incubating the respective bacteria in tubes containing nutrient broth for 24 hours at 30° C. in a shaker. Dilutions of each of the 24 hour-cultures are made so that nine separate suspensions (one for each of the nine test bacteria) are made, each containing 10^8 colony forming units (CFU) per ml of suspension of a particular bacteria. Aliquots of 0.3 ml of each of the bacterial suspensions are used to fill the individual wells of Steer's Replicator. For each microbial suspension, 0.3 ml was used to fill three wells (i.e., three wells of 0.3 ml each) so that for the nine different bacteria, 27 wells are filled. The Steer's Replicator is then used to inoculate both the neutral and alkaline pH nutrient agar petri plates.
(§5) The inoculated petri plates are incubated at 30° C. for 48 hours and then read to determine if the test compound which is incorporated into the agar prevented growth of the respective bacteria.
as §3

The next assay relates to Aspergillus niger (An). The assay can be described thus: Minimum inhibitory concentration (MIC) in malt yeast agar. The format is cell-based, Aspergillus niger ATCC 16404. Particulars: malt yeast agar; 30° C.; 72 hours for fungi; read-out: Minimum Inhibitory Concentration, An. How it is done:
as §1, §2, §3

In a further assay the test system is Escherichia coli (Ec). The assay can be described thus: Minimum inhibitory concentration (MIC) in nutrient agar. The format is cell-based, Escherichia coli ATCC 11229. Conditions: 48 h. Here is the method:
as §1, §4, §5, §3

Another assay deals with Trichoderma viride (Tv). The assay can be described thus: Minimum inhibitory concentration (MIC) in malt yeast agar. The format is cell-based, Trichoderma viride ATCC 8678. Conditions: read-out: Minimum Inhibitory Concentration, Tv. Here is the method:
as §1, §2, §3

The test system of assay [2] is Enterobacter aerogenes (Ea). As to the kind of experiment: Minimum inhibitory concentration (MIC) in nutrient agar. The format is cell-based, Enterobacter aerogenes ATCC 13048. Conditions: Klebsiella aerogenes, 48 h. Here is the method: as §1, §4, §5, §3
Assay [3] concerns Pseudomonas aeruginosa (PRD-10). The description is as above. Conditions: 48 h. The format is cell-based, Pseudomonas aeruginosa ATCC 15442. Here is the method: as §1, §4, §5, §3
The subject of another assay is Bacillus subtilis (Bs). Described as above. The format is cell-based, Bacillus subtilis ATCC 8473. Here is the method: as §1, §4, §5, §3
Assay [4] deals with Staphylococcus aureus (Sa). The assay is described as above. The format is cell-based, Staphylococcus aureus ATCC 6538. How it is done:
as §1, §4, §5, §3

Assay [5] has as its system Klebsiella pneumoniae (Kp). Described as above. The format is cell-based, Klebsiella pneumoniae ATCC 8308. Here is the method:
as §1, §4, §5, §3

The subject of assay [6] is Saccharomyces cerevisiae (Sc). The assay can be described thus: Minimum inhibitory concentration (MIC) in malt yeast agar. The format is cell-based, Saccharomyces cerevisiae ATCC 4105. Conditions: malt yeast agar, 30° C., 48 hours for yeast, read-out: Minimum Inhibitory Concentration, Sc. Here is the method:
as §1, §2, §3

Assay [7] concerns Penicillium chrysogenum (Pc). Described as above. The format is cell-based, Penicillium chrysogenum ATCC 9480. Conditions: malt yeast agar; 30° C.; 72 hours for fungi; read-out: Minimum Inhibitory Concentration, Pc. How it is done:
as §1, §2, §3

The test system of another assay is Proteus vulgaris (Pv). As to the kind of experiment: Minimum inhibitory concentration (MIC) in nutrient agar. The format is cell-based, Proteus vulgaris ATCC 881. Particulars: 48 h. Here is the method:
as §1, §4, §5, §3

Assay [8] has as its system Salmonella choleraesuis (Sc). The assay is described as above. The format is cell-based, Salmonella choleraesuis ATCC 10708. Conditions: Salmonella enterica, 48 h. How it is done:
as §1, §4, §5, §3

The next assay concerns Candida albicans (Ca). As to the kind of experiment: Minimum inhibitory concentration (MIC) in malt yeast agar. The format is cell-based, Candida albicans ATCC 10231. Particulars: malt yeast agar; 30° C.; 48 hours for yeast; read-out: Minimum Inhibitory Concentration, Ca. Here is the method: as §1, §2, §3
Where [9] appears, read: pH 6.8, read-out: Minimum Inhibitory Concentration, Ec.
Where [10] appears, read: pH 8.2, read-out: Minimum Inhibitory Concentration, Ec.
Where [11] appears, read: pH 6.8, read-out: Minimum Inhibitory Concentration, Ea.
Setting [12] is: pH 8.2, read-out: Minimum Inhibitory Concentration, Ea.
Setting [13] is: pH 6.8, read-out: Minimum Inhibitory Concentration, PRD.
The mark [14] stands for this setting: pH 8.2, read-out: Minimum Inhibitory Concentration, PRD.
[15] abbreviates: 48 h, pH 8.2, read-out: Minimum Inhibitory Concentration, Kp.
The mark [16] stands for this setting: pH 6.8, nutrient agar, 30° C., 48 hours, read-out: Minimum Inhibitory Concentration, Kp.
Setting [17] is: pH 6.8, read-out: Minimum Inhibitory Concentration, Pv.
Setting [18] is: pH 8.2, read-out: Minimum Inhibitory Concentration, Pv.
[19] abbreviates: pH 6.8, read-out: Minimum Inhibitory Concentration, Sc.
Setting [20] is: pH 8.2, read-out: Minimum Inhibitory Concentration, Sc.

As for `COc1ccc2nc3c(nc2c1)SC(C#N)=C(C#N)S3` [J, 7-methoxy-1,4-dithiino-(2,3-b)-quinoxaline-2,3-dicarbonitrile], the MIC is 25 µg/mL (≈ 83.8 µM) in the assay with Fusarium oxysporum (Fo); greater than 500 µg/mL in [1] (pH 6.8, 30° C.); greater than 500 µg/mL in assay [1] (pH 8.2, 30° C.); 25 µg/mL (≈ 83.8 µM) in the assay with Aspergillus niger (An); greater than 500 µg/mL in the assay with Escherichia coli (Ec) (setting [9]); greater than 500 µg/mL in the assay on Escherichia coli (Ec) (setting [10]). Further, the MIC is 100 µg/mL (≈ 335 µM) in the assay on Trichoderma viride (Tv) (72 h); greater than 500 µg/mL in assay [2] (setting [11]); greater than 500 µg/mL in [2] (setting [12]); greater than 500 µg/mL in assay [3] (setting [13]); greater than 500 µg/mL in assay [3] (setting [14]); less than 10 µg/mL with Bacillus subtilis (Bs) (pH 6.8, nutrient agar, 30° C., 48 hours, read-out: Minimum Inhibitory Concentration, Bs). The MIC in the assay with Bacillus subtilis (Bs) (pH 8.2, nutrient agar, 30° C., 48 hours, read-out: Minimum Inhibitory Concentration, Bs) is 25 µg/mL (≈ 83.8 µM); in assay [4] (48 h, pH 6.8, read-out: Minimum Inhibitory Concentration, Sa) it was less than 10 µg/mL; in assay [4] (pH 8.2, nutrient agar, 30° C., 48 hours, read-out: Minimum Inhibitory Concentration, Sa), 25 µg/mL (≈ 83.8 µM); in [5] (setting [15]) it was greater than 500 µg/mL; in [5] (setting [16]), greater than 500 µg/mL; in assay [6] it was less than 10 µg/mL. Further, the MIC in assay [7] was 25 µg/mL (≈ 83.8 µM); in the assay with Proteus vulgaris (Pv) (setting [17]), greater than 500 µg/mL; with Proteus vulgaris (Pv) (setting [18]), greater than 500 µg/mL; in assay [8] (setting [19]), greater than 500 µg/mL; in assay [8] (setting [20]), greater than 500 µg/mL; in the assay with Candida albicans (Ca), 25 µg/mL (≈ 83.8 µM).

With `COc1ccc2nc3c(nc2c1)SC(=C(C#N)C#N)S3` [U, 6-Methoxy-1,3-dithiolo-(4,5-b)-quinoxaline-2-ylidene-propanedinitrile], the MIC is greater than 500 µg/mL in the assay on Fusarium oxysporum (Fo); greater than 500 µg/mL in assay [1] (pH 6.8, 30° C.); greater than 500 µg/mL in assay [1] (pH 8.2, 30° C.); greater than 500 µg/mL in the assay on Aspergillus niger (An); greater than 500 µg/mL in the assay on Escherichia coli (Ec) (setting [9]); greater than 500 µg/mL with Escherichia coli (Ec) (setting [10]). Further, the MIC in the assay with Trichoderma viride (Tv) (malt yeast agar, 30° C., 72 hours for fungi) is greater than 500 µg/mL; in [2] (setting [11]) it was greater than 500 µg/mL; in assay [2] (setting [12]) it was greater than 500 µg/mL; in [3] (setting [13]), greater than 500 µg/mL; in [3] (setting [14]) it was greater than 500 µg/mL; in the assay on Bacillus subtilis (Bs) (48 h, pH 6.8, read-out: Minimum Inhibitory Concentration, Bs) it was greater than 500 µg/mL. Also, the MIC is greater than 500 µg/mL in the assay on Bacillus subtilis (Bs) (48 h, pH 8.2, read-out: Minimum Inhibitory Concentration, Bs); greater than 500 µg/mL in [4] (48 h, pH 8.2, read-out: Minimum Inhibitory Concentration, Sa); greater than 500 µg/mL in [4] (pH 6.8, nutrient agar, 30° C., 48 hours, read-out: Minimum Inhibitory Concentration, Sa); greater than 500 µg/mL in assay [5] (setting [15]); greater than 500 µg/mL in assay [5] (setting [16]); greater than 500 µg/mL in assay [6]. Besides, the MIC (in assay [7]; with Proteus vulgaris (Pv) (setting [17]); in the assay on Proteus vulgaris (Pv) (setting [18]); in assay [8] (setting [19]); in assay [8] (setting [20]); in the assay on Candida albicans (Ca)) was greater than 500 µg/mL throughout.
